Experimental data as given in US20240336641A1, “3-PYRROLIDINE-INDOLE DERIVATIVES AS SEROTONERGIC PSYCHEDELIC AGENTS FOR THE TREATMENT OF CNS DISORDERS” (Mindset Pharma Inc., priority 2020, published 2024).

Tests used:
[1] = test system: head-twitch response (HTR) in male C57BL6 mice; assay: Mouse head twitch response (HTR); assay type: in vivo; details: I-2 10 mg/kg SC, M100907 0.5 mg/kg IP pretreatment
Experimental: FIG. 1. is a graph showing the effect of various doses of exemplary compound of Formula I, 1-2, on head-twitch response (HTR) in male C57BL6 mice. The mice were treated with compound I-2 (0.03-10 mg/kg, SC) by SC route (N=6 mice/dose), and the total number of head twitches were recorded over a 1 h period. Data is expressed as mean±SEM. The induction of head twitches elicited by 5-HT2A receptor agonists is believed to represent a behavioural proxy of their psychedelic effects.
Male C57BL6 mice were pretreated with the selective 5-HT2A receptor antagonist M100907 (0.5 mg/kg IP; also known as volinanserin) prior to the administration of exemplary compound of Formula I, 1-2 (10 mg/kg SC). […] Data is expressed as mean±SEM.
Male, C57BL/6J mice (body weight range 20-30 g) were dosed with the appropriate dose of test article, and following a 1-minute pre-treatment time, placed in individual observation chambers. Animals were visually assessed for the incidence head twitches continuously over a 1 hr period. […] Each head twitch was individually counted by a trained observer, and the data expressed as the mean±SEM of 6-10 mice per group. […]
The effect of various doses of exemplary compound of Formula I, 1-2, on head-twitch response (HTR) in male C57BL6 mice were measured. […] Data is expressed as mean±SEM. […]

[2] = In vivo pharmacokinetics in mice (IV and PO); details: male C57BL/6 mice
Experimental: Male C57BL/6 mice (25-30 g) from Charles River Labs were acclimatized for a minimum of 5 days prior to dosing. Body weights will be recorded on the day of dosing.
Animals dosed p.o. were deprived of food overnight and fed ˜2 h following dosing.
(§1) Formulations were administered intravenously (i.v.) via the tail vein or orally (p.o.) by gavage with disposable feeding needles.
(§2) Serial blood samples were collected via tail snip. Terminal blood samples will be collected under isoflurane anesthesia by cardiac puncture.
(§3) All blood samples were transferred into K2EDTA tubes on wet ice and centrifuged within 5 min (3200×g for 5 min at 4° C.) to obtain plasma. Plasma will be stored at −80° C. until analysis.
(§4) • i. Analysis software: Phoenix® WinNonlin® 8.2 (Pharsight, Certara, Mountainview, CA) • ii. Analysis methods: non-compartmental analysis, linear up/log down trapezoidal rule • iii. PK parameters: C0, t1/2, AUC0-last. AUC0-∞, CL, Vss, MRT, tmax(po), Cmax(po), F, as appropriate

[3] = In vivo pharmacokinetics in rats (IV and PO); details: male SD rats
Experimental: as §1, §2, §3, §4

[2H]C([2H])([2H])N1CCC[C@@H]1Cc1c[nH]c2cccc(O)c12 [Compound I-2, (R)-3-((1-(methyl-d3)pyrrolidin-2-yl)methyl)-1H-indol-4-ol]
effect on head-twitch response (HTR) after pretreatment with selective 5-HT2A antagonist M100907 [1]: completely blocked

[2H]C([2H])(c1c[nH]c2cccc(OC)c12)[C@H]1CCCN1C([2H])([2H])[2H] [Compound I-39, (R)-4-methoxy-3-((1-(methyl-d3)pyrrolidin-2-yl)methyl-d2)-1H-indole]
biotransformation after administration ([2]; IV (footnote Table 5)): ^(a)I-39 is hydrolysed to I-44 after IV administration | biotransformation after administration ([2]; PO table (footnote Table 6 prints IV)): ^(a)1-39 is hydrolysed to I-44 after IV administration | biotransformation after administration ([3]; IV (footnote Table 7)): ^(a)I-39 is hydrolysed to I-44 after IV administration | biotransformation after administration ([3]; oral (footnote Table 8)): ^(a)I-39 is hydrolysed to I-44 after oral administration
